Measured values taken from BigSolDB 2.1.

O=C1CCc2cc(O)ccc2N1
solubility (mole fraction)
Details | in THF | in acetonitrile | in ethanol | in ethyl acetate | in isobutanol | in isopropanol | in methanol | in methyl acetate | in n-butanol | in n-propanol
278.15 K | 0.00248 | 0.000292 | 0.00214 | 0.000666 | 0.00114 | 0.00186 | 0.00224 | 0.00155 | 0.00181 | 0.00173
283.15 K | 0.00277 | 0.000345 | 0.00242 | 0.000723 | 0.00134 | 0.00226 | 0.0027 | 0.00172 | 0.00201 | 0.00202
288.15 K | 0.00307 | 0.000403 | 0.00281 | 0.000792 | 0.00162 | 0.0026 | 0.00309 | 0.00188 | 0.00232 | 0.00236
293.15 K | 0.00346 | 0.00048 | 0.00324 | 0.00086 | 0.00192 | 0.003 | 0.00356 | 0.00209 | 0.00269 | 0.0027
298.15 K | 0.00383 | 0.000576 | 0.00373 | 0.000927 | 0.00229 | 0.00346 | 0.00412 | 0.00231 | 0.00309 | 0.00314
303.15 K | 0.00424 | 0.000668 | 0.00431 | 0.000992 | 0.00268 | 0.00395 | 0.0048 | 0.00257 | 0.00357 | 0.00364
308.15 K | 0.00473 | 0.000784 | 0.00496 | 0.00108 | 0.00316 | 0.00471 | 0.00551 | 0.00287 | 0.00409 | 0.00419
313.15 K | 0.00526 | 0.000887 | 0.00574 | 0.00115 | 0.00378 | 0.0055 | 0.00648 | 0.00316 | 0.00473 | 0.00482
318.15 K | 0.00591 | 0.00102 | 0.00664 | 0.00122 | 0.00427 | 0.00631 | 0.00745 | 0.00352 | 0.00543 | 0.00554
323.15 K | 0.00651 | 0.00118 | 0.00761 | 0.00131 | 0.00493 | 0.00721 | 0.00838 | 0.00391 | 0.00623 | 0.00641
